The values that follow come from ChEMBL document CHEMBL5465560, “Selectivity Literature for EUbOPEN Chemogenomic Library” (2024).

Test [1] has as its target T1, Serine/threonine-protein kinase LATS1 (Homo sapiens) (UniProt O95835).
T1 sequence (whole entry): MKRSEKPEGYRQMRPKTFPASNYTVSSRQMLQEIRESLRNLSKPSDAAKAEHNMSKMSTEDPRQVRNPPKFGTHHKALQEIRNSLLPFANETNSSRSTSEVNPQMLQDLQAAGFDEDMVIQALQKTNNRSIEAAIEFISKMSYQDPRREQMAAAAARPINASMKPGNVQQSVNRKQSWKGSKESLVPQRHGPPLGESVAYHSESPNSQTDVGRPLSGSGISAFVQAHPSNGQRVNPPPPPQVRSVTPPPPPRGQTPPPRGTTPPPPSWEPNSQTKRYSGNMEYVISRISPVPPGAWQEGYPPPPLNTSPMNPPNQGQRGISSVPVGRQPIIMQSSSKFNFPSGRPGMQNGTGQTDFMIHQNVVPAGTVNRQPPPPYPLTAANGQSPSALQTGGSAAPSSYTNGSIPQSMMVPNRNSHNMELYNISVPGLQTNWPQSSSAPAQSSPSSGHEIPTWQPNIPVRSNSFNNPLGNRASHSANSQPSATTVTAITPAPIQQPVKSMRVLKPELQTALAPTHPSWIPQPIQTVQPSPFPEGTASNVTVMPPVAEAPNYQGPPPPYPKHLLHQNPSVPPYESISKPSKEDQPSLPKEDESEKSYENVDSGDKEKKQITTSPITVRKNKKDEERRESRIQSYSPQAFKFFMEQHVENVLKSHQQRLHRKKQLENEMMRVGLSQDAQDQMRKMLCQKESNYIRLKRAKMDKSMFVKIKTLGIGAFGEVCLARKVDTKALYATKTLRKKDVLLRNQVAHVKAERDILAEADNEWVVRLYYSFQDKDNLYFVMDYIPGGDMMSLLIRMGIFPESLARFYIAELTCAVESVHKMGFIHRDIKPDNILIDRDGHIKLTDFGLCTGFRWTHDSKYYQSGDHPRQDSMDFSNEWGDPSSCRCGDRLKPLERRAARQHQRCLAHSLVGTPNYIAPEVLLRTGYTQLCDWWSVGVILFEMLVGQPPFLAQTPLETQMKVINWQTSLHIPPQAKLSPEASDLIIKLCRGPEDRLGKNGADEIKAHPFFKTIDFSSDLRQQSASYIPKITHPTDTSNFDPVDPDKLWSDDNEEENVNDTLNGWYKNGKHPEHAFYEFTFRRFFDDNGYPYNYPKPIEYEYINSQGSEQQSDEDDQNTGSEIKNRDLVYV
As to the kind of experiment: Selectivity interaction (LanthaScreen Eu Kinase Binding Assay) EUB0001632a LATS1. The following applies: at 10 µM.

The target in test [2] is Calcium/calmodulin-dependent protein kinase type 1 (Homo sapiens) (UniProt Q14012). The test can be described thus: Selectivity interaction (Ambit KINOMEscan and KiNATiv profiling in Jurkat cells) EUB0000090b CAMK1. It is filed as cell-based. To be noted: at 1 µM.
Test [3] has as its target Calcium/calmodulin-dependent protein kinase type II subunit gamma (Homo sapiens) (UniProt Q13555). The test can be described thus: Selectivity interaction (KinomeScan (DiscoverX)) EUB0001079a CAMK2G. The following applies: at 1 µM.
Test [4] concerns the target T2, Myosin light chain kinase family member 4 (Homo sapiens) (UniProt Q86YV6).
T2 sequence (whole entry): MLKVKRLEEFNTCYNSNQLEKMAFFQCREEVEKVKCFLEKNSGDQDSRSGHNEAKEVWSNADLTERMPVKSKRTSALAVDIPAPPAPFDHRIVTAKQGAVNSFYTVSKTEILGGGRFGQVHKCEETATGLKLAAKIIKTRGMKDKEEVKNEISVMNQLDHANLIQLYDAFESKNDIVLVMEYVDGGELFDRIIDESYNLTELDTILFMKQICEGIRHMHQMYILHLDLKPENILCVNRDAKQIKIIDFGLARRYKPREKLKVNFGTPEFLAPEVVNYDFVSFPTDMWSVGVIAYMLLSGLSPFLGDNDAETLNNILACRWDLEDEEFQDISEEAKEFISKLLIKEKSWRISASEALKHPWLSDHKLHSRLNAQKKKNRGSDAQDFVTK
As to the kind of experiment: Selectivity interaction (KinomeScan (DiscoverX)) EUB0001049a MYLK4. The following applies: at 1 µM.

In test [5] the target is T3, NUAK family SNF1-like kinase 1 (Homo sapiens) (UniProt O60285).
T3 sequence (whole entry): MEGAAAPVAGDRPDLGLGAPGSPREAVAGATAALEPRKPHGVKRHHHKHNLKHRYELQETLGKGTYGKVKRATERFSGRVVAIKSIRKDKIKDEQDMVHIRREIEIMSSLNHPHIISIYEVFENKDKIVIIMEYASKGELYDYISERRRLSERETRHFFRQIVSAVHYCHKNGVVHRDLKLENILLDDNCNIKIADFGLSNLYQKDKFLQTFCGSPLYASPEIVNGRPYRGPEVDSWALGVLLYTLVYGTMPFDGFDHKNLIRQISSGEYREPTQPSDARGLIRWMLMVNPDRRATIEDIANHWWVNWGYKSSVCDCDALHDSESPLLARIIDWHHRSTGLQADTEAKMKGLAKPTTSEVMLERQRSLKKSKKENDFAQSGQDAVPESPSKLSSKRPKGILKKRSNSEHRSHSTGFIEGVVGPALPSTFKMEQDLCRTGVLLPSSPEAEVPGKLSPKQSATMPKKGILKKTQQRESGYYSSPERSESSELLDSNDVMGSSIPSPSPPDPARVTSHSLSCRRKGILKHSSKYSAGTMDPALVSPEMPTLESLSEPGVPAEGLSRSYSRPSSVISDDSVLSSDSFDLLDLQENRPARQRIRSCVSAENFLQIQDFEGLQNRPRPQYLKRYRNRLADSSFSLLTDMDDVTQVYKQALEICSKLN
As to the kind of experiment: Selectivity interaction (KinomeScan (DiscoverX)) EUB0001049a NUAK1. To be noted: at 1 µM.

Chain of Calcium/calmodulin-dependent protein kinase type 1 (Homo sapiens) (Q14012 whole entry, looked up): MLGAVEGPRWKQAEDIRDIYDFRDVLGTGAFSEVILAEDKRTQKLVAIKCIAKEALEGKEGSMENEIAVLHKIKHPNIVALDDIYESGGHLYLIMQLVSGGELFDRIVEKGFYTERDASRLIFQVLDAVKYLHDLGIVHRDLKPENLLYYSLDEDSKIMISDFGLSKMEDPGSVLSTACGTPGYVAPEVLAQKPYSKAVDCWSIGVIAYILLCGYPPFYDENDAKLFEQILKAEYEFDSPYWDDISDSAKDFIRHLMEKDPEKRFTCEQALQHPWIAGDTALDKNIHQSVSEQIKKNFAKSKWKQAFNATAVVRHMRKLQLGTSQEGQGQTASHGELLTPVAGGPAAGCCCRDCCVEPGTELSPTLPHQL
Chain of Calcium/calmodulin-dependent protein kinase type II subunit gamma (Homo sapiens) (Q13555 whole entry): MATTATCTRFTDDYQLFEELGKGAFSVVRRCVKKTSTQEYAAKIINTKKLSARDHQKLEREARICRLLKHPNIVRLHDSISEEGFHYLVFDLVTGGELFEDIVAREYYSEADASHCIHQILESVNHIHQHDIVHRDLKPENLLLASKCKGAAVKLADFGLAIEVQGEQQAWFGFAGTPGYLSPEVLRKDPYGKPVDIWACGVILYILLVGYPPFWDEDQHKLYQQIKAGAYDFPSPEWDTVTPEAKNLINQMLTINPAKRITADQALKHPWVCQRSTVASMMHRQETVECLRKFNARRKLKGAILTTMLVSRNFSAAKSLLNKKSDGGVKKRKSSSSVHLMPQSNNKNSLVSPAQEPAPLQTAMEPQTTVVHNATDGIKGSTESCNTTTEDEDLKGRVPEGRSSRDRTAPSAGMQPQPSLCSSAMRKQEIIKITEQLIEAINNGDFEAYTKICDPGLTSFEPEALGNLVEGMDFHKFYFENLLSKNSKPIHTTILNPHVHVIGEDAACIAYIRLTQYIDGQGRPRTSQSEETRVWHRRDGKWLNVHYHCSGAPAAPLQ

`Cn1cc(-n2cnc3c(NCc4nc5cc(Cl)c(Cl)cc5[nH]4)nc(N4CCOCC4)nc32)cn1`: in test [1], the % of inhibition was -63.1%.
As for `CN(C)C/C=C/C(=O)Nc1ccc(C(=O)N2CCCC(Nc3ncc(Cl)c(-c4c[nH]c5ccccc45)n3)C2)cc1` (stereo not given), the % of control in test [2] is 93%.
For the molecule `Nc1cnc(N2CCc3cc(S(=O)(=O)Nc4c(F)cc(Cl)cc4F)cc(N4CCCC4=O)c32)nc1` [TP-020n], the % of control in test [3] came to 100%.
Consider `COc1cc(Nc2nc(C)cc(-c3cnn4nc(OC)ccc34)n2)cc(C(F)(F)F)c1`, for which the % of control in test [4] and in test [5] was 100% each time.
